Here are results for eleven compounds from ChEMBL document CHEMBL5465560, “Selectivity Literature for EUbOPEN Chemogenomic Library” (2024).

Assay [1] has as its target Protein-tyrosine kinase 2-beta (Homo sapiens) (UniProt Q14289). As to the kind of experiment: Selectivity interaction (ProQinase) EUB0000171b PTK2B.
In assay [2] the target is Mitogen-activated protein kinase 11 (Homo sapiens) (UniProt Q15759). The following applies: at 10 µM.
The target in assay [3] is MAP kinase-interacting serine/threonine-protein kinase 2 (Homo sapiens, UniProt Q9HBH9). As to the kind of experiment: Selectivity interaction (Ambit KINOMEscan and KiNATiv profiling in Jurkat cells) EUB0000090b MKNK2. Type of assay: cell-based. To be noted: at 1 µM.
For assay [4], the target named is Maternal embryonic leucine zipper kinase (Homo sapiens) (UniProt Q14680). As to the kind of experiment: Selectivity interaction (Ambit KINOMEscan and KiNATiv profiling in Jurkat cells) EUB0000090b MELK. The following applies: at 1 µM. Type of assay: cell-based.
The target of assay [5] is Serine/threonine-protein kinase PAK 3 (Homo sapiens) (UniProt O75914). As to the kind of experiment: Selectivity interaction (KinomeScan (DiscoverX)) EUB0001079a PAK3. The following applies: at 1 µM.
Assay [6] addresses Serine/threonine-protein kinase MRCK beta (Homo sapiens) (UniProt Q9Y5S2). As to the kind of experiment: Selectivity interaction (KinomeScan (DiscoverX)) EUB0000092b CDC42BPB. The following applies: at 10 µM.
In assay [7] the target is Protein arginine N-methyltransferase 7 (Homo sapiens, UniProt Q9NVM4). As to the kind of experiment: Selectivity interaction (Scintillation proximity assays) EUB0000255b PRMT7. A general note: SPA uses beads or plates that emit light when radiolabelled molecules are held near them.
The target in assay [8] is Calcium/calmodulin-dependent protein kinase type 1G (Homo sapiens) (UniProt Q96NX5). As to the kind of experiment: Selectivity interaction (KinomeScan (DiscoverX)) EUB0000045b CAMK1G.
In assay [9] the target is RAC-gamma serine/threonine-protein kinase (Homo sapiens, UniProt Q9Y243). As to the kind of experiment: Selectivity interaction (KinomeScan (DiscoverX)) EUB0000607a AKT3. The following applies: at 10 µM.
For assay [10], the target named is T1, Inhibitor of nuclear factor kappa-B kinase subunit beta (Homo sapiens) (UniProt O14920).
T1 sequence (whole entry): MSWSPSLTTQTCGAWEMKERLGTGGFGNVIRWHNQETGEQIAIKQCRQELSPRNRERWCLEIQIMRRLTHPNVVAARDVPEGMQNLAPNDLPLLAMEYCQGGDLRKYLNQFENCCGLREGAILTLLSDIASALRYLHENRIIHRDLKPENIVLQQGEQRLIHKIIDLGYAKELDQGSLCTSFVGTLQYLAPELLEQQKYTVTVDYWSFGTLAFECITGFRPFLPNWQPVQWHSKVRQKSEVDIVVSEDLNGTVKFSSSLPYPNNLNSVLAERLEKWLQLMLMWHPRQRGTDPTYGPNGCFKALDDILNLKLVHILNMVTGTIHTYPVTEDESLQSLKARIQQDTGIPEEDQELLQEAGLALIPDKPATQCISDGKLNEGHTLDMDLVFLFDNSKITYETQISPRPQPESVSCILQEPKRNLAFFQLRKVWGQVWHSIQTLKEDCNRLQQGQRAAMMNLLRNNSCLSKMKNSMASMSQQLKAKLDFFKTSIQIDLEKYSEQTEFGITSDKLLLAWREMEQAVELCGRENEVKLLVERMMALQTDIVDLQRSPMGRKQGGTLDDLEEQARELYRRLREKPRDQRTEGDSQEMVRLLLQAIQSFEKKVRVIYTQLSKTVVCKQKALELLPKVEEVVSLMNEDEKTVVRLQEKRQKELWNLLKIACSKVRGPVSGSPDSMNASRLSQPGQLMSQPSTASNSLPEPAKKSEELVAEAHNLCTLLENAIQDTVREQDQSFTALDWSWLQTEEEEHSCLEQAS
As to the kind of experiment: Selectivity interaction (Kinase panel (Invitrogen)) EUB0000639a IKBKB. To be noted: at 200 nM.

The target of assay [11] is DNA-dependent protein kinase catalytic subunit (Homo sapiens) (UniProt P78527). As to the kind of experiment: Selectivity interaction (Kinase panel (Invitrogen)) EUB0000639a PRKDC. The following applies: at 200 nM.
Sequence of DNA-dependent protein kinase catalytic subunit (Homo sapiens) (P78527 whole entry): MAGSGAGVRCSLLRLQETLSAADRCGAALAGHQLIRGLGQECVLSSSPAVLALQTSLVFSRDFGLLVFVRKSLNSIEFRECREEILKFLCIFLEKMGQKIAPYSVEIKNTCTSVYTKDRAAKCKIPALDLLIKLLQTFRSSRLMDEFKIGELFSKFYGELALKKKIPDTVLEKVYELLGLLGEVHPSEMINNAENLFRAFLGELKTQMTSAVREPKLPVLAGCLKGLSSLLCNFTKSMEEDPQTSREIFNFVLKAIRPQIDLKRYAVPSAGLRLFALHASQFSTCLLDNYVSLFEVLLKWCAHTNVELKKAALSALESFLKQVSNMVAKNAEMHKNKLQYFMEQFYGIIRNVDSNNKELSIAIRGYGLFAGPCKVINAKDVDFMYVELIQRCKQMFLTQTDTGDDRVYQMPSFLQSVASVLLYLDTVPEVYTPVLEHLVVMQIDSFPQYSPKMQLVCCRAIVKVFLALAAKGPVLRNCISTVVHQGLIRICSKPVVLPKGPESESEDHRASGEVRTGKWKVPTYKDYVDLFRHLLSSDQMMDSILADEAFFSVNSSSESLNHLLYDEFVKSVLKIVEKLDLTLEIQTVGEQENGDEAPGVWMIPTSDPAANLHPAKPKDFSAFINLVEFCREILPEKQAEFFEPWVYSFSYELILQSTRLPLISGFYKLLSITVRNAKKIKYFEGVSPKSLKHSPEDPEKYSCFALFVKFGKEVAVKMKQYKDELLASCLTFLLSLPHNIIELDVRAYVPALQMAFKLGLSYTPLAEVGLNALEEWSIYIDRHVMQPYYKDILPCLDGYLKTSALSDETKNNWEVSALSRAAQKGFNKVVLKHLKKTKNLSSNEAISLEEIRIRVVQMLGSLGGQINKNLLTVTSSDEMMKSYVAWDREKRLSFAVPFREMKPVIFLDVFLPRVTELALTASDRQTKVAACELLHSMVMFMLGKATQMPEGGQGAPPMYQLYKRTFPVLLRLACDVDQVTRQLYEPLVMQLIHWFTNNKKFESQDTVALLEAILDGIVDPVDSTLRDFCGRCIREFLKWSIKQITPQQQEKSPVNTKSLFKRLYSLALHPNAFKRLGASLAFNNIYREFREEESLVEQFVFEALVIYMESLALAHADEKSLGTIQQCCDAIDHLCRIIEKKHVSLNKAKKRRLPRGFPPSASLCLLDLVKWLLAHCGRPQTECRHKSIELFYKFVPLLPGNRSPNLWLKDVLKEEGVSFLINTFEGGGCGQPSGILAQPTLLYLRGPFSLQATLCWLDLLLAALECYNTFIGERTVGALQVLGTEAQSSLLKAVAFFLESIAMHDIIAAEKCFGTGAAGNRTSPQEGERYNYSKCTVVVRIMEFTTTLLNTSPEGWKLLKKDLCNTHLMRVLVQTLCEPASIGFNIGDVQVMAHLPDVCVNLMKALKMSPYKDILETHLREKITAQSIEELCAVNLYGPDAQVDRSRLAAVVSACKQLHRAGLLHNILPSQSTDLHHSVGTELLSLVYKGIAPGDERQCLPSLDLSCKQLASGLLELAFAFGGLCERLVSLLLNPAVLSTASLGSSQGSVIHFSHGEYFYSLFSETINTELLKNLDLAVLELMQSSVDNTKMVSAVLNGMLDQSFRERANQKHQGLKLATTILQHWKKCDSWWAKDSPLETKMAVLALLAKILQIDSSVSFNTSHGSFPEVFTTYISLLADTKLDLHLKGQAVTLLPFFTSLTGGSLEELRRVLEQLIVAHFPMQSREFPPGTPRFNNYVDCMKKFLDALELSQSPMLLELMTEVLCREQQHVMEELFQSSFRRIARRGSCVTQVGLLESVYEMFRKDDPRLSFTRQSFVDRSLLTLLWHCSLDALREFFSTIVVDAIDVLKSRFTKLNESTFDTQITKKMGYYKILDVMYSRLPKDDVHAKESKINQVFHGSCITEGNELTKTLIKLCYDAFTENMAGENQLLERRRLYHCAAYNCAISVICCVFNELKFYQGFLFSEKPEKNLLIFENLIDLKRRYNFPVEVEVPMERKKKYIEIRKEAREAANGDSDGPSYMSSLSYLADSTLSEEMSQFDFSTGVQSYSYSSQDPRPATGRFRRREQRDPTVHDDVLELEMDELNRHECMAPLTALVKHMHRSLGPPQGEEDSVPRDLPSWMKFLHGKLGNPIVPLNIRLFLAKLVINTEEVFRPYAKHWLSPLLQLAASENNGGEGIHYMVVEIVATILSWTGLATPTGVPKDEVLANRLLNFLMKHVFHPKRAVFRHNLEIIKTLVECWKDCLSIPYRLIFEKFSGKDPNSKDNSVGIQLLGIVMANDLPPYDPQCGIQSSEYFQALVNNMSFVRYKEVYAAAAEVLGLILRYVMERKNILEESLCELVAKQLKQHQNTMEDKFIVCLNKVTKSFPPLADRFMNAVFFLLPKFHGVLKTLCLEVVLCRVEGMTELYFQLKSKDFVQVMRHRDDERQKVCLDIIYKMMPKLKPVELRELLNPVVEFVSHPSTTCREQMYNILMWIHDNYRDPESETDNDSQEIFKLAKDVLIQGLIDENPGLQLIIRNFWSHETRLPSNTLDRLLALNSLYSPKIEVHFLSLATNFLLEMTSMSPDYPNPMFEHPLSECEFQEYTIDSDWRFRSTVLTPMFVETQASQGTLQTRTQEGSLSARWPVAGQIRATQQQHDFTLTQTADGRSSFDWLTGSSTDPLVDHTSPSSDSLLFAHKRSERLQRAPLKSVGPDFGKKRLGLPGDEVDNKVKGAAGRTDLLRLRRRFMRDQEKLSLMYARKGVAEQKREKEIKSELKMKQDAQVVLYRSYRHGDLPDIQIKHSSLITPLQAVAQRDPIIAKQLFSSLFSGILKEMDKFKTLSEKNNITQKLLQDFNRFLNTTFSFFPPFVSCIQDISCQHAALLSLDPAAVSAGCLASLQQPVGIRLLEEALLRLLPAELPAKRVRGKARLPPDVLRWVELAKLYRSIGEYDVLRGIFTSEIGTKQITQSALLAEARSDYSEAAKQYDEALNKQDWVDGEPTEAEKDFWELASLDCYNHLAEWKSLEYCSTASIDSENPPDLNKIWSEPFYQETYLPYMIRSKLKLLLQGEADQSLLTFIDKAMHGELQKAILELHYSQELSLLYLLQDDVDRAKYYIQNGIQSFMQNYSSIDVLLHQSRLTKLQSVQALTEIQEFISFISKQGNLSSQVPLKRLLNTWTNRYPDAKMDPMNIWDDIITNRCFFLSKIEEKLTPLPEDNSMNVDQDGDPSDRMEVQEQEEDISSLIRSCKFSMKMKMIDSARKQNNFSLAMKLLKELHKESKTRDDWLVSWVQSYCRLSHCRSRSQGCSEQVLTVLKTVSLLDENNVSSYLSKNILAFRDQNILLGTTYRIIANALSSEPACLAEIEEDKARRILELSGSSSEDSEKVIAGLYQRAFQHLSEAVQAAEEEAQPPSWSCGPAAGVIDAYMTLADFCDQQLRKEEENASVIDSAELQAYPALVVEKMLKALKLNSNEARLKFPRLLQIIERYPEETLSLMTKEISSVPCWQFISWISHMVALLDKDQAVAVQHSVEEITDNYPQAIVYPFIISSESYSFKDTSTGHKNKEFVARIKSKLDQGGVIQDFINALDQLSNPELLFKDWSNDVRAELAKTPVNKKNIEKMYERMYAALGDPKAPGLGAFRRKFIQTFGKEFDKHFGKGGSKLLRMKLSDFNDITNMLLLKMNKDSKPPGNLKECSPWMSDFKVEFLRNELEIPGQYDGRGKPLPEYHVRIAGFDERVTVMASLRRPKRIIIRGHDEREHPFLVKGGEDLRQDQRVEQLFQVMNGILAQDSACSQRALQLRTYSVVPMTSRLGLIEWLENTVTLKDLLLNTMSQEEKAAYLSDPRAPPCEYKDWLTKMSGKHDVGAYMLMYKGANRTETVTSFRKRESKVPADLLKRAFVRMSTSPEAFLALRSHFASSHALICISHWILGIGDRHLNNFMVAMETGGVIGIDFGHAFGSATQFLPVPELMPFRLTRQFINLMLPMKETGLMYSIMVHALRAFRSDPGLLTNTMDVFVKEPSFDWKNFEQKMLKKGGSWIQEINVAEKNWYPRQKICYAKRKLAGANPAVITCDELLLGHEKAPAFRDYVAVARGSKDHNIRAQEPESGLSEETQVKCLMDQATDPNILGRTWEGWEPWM
For assay [12] the target is unchanged. As to the kind of experiment: Selectivity interaction (ActivX KiNativ screen (kinase selectivity in THP-1 cell lysates)) EUB0000639a PRKDC. The format is subcellular. The following applies: lysate, at 1 µM.
The target in assay [13] is Ribosomal protein S6 kinase alpha-5 (Homo sapiens) (UniProt O75582). As to the kind of experiment: Selectivity interaction (Kinase panel (Invitrogen)) EUB0000639a RPS6KA5. The following applies: at 200 nM.
The target of assay [14] is T2, Mitogen-activated protein kinase kinase kinase kinase 2 (Homo sapiens) (UniProt Q12851).
T2 sequence (whole entry): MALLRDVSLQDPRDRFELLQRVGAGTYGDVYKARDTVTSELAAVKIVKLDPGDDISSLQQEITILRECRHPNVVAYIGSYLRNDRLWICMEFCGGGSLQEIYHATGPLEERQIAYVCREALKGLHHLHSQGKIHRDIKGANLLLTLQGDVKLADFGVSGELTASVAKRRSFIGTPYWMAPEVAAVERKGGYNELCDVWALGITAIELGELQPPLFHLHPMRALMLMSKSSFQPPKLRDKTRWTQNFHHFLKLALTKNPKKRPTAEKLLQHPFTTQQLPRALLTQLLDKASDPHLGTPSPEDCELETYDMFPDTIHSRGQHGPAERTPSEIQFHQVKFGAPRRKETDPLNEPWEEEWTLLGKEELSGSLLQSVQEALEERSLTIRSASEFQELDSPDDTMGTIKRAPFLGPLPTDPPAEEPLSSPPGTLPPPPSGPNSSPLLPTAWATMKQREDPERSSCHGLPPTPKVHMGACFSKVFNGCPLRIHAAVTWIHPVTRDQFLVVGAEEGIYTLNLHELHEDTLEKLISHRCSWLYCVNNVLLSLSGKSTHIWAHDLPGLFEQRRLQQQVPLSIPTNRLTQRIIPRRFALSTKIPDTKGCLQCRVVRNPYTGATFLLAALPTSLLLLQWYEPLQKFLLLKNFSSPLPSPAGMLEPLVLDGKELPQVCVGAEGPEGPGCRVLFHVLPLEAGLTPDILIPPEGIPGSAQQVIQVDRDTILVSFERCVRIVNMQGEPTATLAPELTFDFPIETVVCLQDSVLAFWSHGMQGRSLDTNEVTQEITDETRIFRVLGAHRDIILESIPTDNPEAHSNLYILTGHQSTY
As to the kind of experiment: Selectivity interaction (ActivX KiNativ screen (kinase selectivity in THP-1 cell lysates)) EUB0000639a MAP4K2. The format is subcellular. To be noted: lysate, at 5 µM.

Assay [15] has as its target Fibroblast growth factor receptor 4 (Homo sapiens, UniProt P22455). As to the kind of experiment: Selectivity interaction (Kinase panel (Invitrogen)) EUB0000639a FGFR4. To be noted: at 200 nM.
The target of assay [16] is Serine/threonine-protein kinase 10 (Homo sapiens) (UniProt O94804). As to the kind of experiment: Selectivity interaction (ActivX KiNativ screen (kinase selectivity in THP-1 cell lysates)) EUB0000639a STK10. The format is subcellular. To be noted: lysate, at 0.01 µM.
The target in assay [17] is Phosphatidylinositol 4-kinase beta (Homo sapiens, UniProt Q9UBF8). As to the kind of experiment: Selectivity interaction (KinomeScan (DiscoverX)) EUB0000229b PI4KB. To be noted: at 10 µM.
For assay [18], the target named is Receptor tyrosine-protein kinase erbB-4 (Homo sapiens, UniProt Q15303). As to the kind of experiment: Selectivity interaction (KinomeScan (DiscoverX)) EUB0000229b ERBB4. To be noted: at 10 µM.
Assay [19] concerns the target Protein polybromo-1 (Homo sapiens) (UniProt Q86U86). As to the kind of experiment: Selectivity interaction (Human bromodomain panel (DSF assay)) EUB0000233b PBRM1.

Sequence of Protein-tyrosine kinase 2-beta (Homo sapiens) (Q14289 whole entry, looked up): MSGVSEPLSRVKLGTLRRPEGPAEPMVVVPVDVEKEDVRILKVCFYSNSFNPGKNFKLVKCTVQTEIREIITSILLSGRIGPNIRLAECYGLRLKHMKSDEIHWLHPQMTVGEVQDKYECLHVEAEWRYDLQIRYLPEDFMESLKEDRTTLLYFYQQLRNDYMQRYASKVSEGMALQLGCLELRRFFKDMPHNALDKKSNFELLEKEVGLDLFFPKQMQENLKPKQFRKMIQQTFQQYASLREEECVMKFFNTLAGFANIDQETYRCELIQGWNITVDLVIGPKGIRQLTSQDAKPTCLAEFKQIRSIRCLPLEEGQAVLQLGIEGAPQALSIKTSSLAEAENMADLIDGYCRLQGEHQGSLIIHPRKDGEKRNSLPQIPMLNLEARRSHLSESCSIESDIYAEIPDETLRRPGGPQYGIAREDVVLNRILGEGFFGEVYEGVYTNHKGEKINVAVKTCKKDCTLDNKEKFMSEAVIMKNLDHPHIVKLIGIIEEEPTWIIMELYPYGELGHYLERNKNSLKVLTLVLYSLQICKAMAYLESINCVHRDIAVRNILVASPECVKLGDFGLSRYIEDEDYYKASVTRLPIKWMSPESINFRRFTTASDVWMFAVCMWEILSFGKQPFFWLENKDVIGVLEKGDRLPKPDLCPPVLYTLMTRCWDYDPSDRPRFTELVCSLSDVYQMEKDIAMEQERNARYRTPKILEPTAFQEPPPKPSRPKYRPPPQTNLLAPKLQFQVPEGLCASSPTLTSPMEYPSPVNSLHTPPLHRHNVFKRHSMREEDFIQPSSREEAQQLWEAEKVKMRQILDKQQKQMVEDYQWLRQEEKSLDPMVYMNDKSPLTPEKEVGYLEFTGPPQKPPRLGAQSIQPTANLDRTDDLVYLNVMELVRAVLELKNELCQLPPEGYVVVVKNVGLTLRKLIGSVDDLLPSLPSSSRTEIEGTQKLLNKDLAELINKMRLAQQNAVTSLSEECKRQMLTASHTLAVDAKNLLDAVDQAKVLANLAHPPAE

`C=CC(=O)Nc1cccc(C(=O)Nc2ccc(Nc3cc(-c4[nH]c(SC)nc4C)ccn3)cc2)c1`: the figures for the % of control in assay [1] (at 1 µM) and in assay [1] (at 5 µM) were 91% and 96%, respectively.

Turning to `Cc1cc([C@@H](C)Nc2ccccc2C(=O)O)c2nc(N3CCOCC3)cc(=O)n2c1` [AZD-6482], in assay [2], the % of control came out at 91%. With `CN(C)C/C=C/C(=O)Nc1ccc(C(=O)N2CCCC(Nc3ncc(Cl)c(-c4c[nH]c5ccccc45)n3)C2)cc1` (stereo unspecified), the % of control worked out at 88% in assay [3] and 75% in assay [4].

`Nc1cnc(N2CCc3cc(S(=O)(=O)Nc4c(F)cc(Cl)cc4F)cc(N4CCCC4=O)c32)nc1` [TP-020n]: in [5], the % of control was determined as 100%.

In turn, `CCC(=O)N1CCN(c2ccc(-n3c(=O)ccc4cnc5ccc(-c6cnc7ccccc7c6)cc5c43)cc2C(F)(F)F)CC1` registered a % of control in assay [6] of 3.4%.

Regarding `COCCN1CCC(c2cc(CN(C)C(=O)c3cccc(Oc4ccccc4)c3)ccn2)CC1`, the IC50 in assay [7] is > 10 µM.

Turning to `C=CC(=O)Nc1cc(-n2c(=O)ccc3cnc4ccc(-c5ccc(NS(C)(=O)=O)cc5)cc4c32)ccc1C`, the % of control in [8] (at 1 µM) came out at 100%; in assay [8] (at 10 µM), 68%. With `CNC(=O)Nc1ccc(-c2nc(N3CC4CCC(C3)O4)c3cnn(C4CCC5(CC4)OCCO5)c3n2)cc1`, in assay [9], the % of control came to 86%. Take `CC[C@@H]1[C@H](F)C(=O)N[C@@H]1COc1nccc2cc(C(N)=O)c(OC)cc12` [ZIMLOVISERTIB]: the % of inhibition in assay [10] is 4.3%; in assay [11], 7.87%; in assay [12] it was 7.2%; in [13], 0.449%; in [14], -1.3%; in assay [15], 3.68%. Moreover, the % of inhibition in [16] came to 2.4%. As to `COc1cc(N(C)c2ccnc3ccc(C(F)(F)F)cc23)cc(OC)c1OC`, the % binding in [17] turned out to be 90%; in [18] it was 81%. With `CN(C)CCCOc1ccc(-c2cc(NCCCn3cccn3)nc(S(C)(=O)=O)n2)cc1`, the dTM in [19] is < 2 K.

The IC50 is the concentration needed to halve the response being measured.
